Patent US20250195513A1, “DEGRADATION OF IRAK4 BY CONJUGATION OF IRAK4 INHIBITORS WITH E3 LIGASE LIGAND AND METHODS OF USE” (BeiGene, Ltd., priority 2022, published 2025)
Like-named read-outs stand apart in the source and are kept apart here.

Molecular target: T1, IRAK4 (Homo sapiens, UniProt Q9NWZ3)
T1 construct: endogenous in cells; host or cells: Karpas299
T1 sequence (Q9NWZ3 1-460): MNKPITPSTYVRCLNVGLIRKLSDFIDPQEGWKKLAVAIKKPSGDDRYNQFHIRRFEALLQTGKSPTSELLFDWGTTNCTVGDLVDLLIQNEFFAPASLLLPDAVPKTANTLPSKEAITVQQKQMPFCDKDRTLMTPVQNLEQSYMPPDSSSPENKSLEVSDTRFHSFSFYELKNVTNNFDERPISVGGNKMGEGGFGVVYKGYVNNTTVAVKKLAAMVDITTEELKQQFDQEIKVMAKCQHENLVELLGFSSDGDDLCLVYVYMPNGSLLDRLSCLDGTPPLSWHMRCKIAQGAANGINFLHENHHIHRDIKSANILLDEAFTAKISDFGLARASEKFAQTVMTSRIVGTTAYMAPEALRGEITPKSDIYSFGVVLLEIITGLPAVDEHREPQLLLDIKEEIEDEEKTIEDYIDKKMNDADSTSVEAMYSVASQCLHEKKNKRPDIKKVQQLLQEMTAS
Assay: IRAK4 Degradation Assay (Karpas299, HTRF/TR-FRET)
Type: cell-based
Method: IRAK4 degradation was measured using a TR-FRET-based method (Degorce, François, et al. Current chemical genomics. 2009, 3: 22). Karpas299 maintained in RPMI 1640 medium (Thermo Scientific) supplemented with 20% fetal bovine serum (FBS, Thermo Scientific), 100 units/mL penicillin and 0.1 mg/mL streptomycin (Thermo Scientific) were seeded into 96-well plates at the density of 0.2 million cells per well and then treated with a series dilution of compounds. After 24 hours or 5 hours treatment, cells were pelleted via centrifugation and 40 μL lysis buffer (Cisbio) was added to each well after removal of the supernatant. Plates were then incubated at room temperature with shaking for 30 minutes. A total of 16 μL of cell lysates from each well of a 96-well plate was transferred to a 384-well white assay plate. IRAK4 level was quantitated using the HTRF kit as described by the manufacturer manual (Cisbio). FRET signals were measured using a PHERAstar FSX reader (BMG Labtech).
After treatment, add HTRF lysis buffer to each well; seal the plate and incubate 1 hour at room temperature on a plate shaker; Once the cells are lysed, 16 μL of cell lysate are transferred to a PE 384-well HTRF detection plate; 4 μL of pre-mixed HTRF antibodies are added to each well; Cover the plate with a plate sealer, spin 1000 rpm for 1 min, Incubate overnight at room temperature; Read on BMG PheraStar with HTRF protocol (337 nm-665 nm-620 nm).
The inhibition (degradation) percentage of the compound was calculated by the following equation: […]
The IC50 (DC50) value of a compound can be obtained by fitting the following equation
Wherein, X and Y are known values, and IC50, Hillslope, Top and Bottom are the parameters obtained by fitting with software. Y is the inhibition percentage (calculated from the equation), X is the concentration of the compound; IC50 is the concentration of the compound when the […] is reached. The smaller the IC50 value is, the stronger the inhibitory ability of the compound is. Vice versa, the higher the IC50 value is, the weaker the ability the inhibitory ability of the compound is; Hillslope represents the slope of the fitted curve, generally around 1 *; Bottom represents the minimum value of the curve obtained by data fitting, which is generally 0%±20%; Top represents the maximum value of the curve obtained by data fitting, which is generally 100%±20%. The experimental data were fitted by calculating and analyzing with Dotmatics data analysis software.

[1] = Karpas-299 cells, 24 h treatment, maximum percentage of degradation, read-out: IRAK4 in Karpas-299 (24 h) Dmax (%)
[2] = Karpas-299 cells, 24 h treatment, read-out: IRAK4 in Karpas-299 (24 h) DC50
[3] = Karpas-299 cells, 5 h treatment, maximum percentage of degradation, read-out: IRAK4 in Karpas-299 (5 h) Dmax (%)
[4] = Karpas-299 cells, 5 h treatment, read-out: IRAK4 in Karpas-299 (5 h) DC50

Row | SMILES | Dmax [1] | DC50 [2] | DC50 (Degradation (Karpas-299), comparison table, Linker Type B, read-out: Compound (Linker Type B) DC50) | Dmax (Degradation (Karpas-299), comparison table, Linker Type B, read-out: Compound (Linker Type B) Dmax (%)) | Dmax [3] | DC50 [4] | DC50 (Degradation (Karpas-299), comparison table, Linker Type A, read-out: Compound (Linker Type A) DC50) | Dmax (Degradation (Karpas-299), comparison table, Linker Type A, read-out: Compound (Linker Type A) Dmax (%))
1 | COc1cc2nn([C@H]3CC[C@H](N4CCN(CCc5cc(F)c([C@H]6CCC(=O)NC6=O)c(F)c5)CC4)CC3)cc2cc1NC(=O)c1cccc(C(F)(F)F)n1 [Example 120, N-(2-((1R,4r)-4-(4-(4-((R)-2,6-dioxopiperidin-3-yl)-3,5-difluorophenethyl)piperazin-1-yl)cyclohexyl)-6-methoxy-2H-indazol-5-yl)-6-(trifluoromethyl)picolinamide] | 99% | 4.2 nM | – | – | – | – | – | –
2 | COc1cc2nn([C@H]3CC[C@H](N4CCN(C(=O)[C@@H]5CCN(c6ccc(N7CCC(=O)NC7=O)cc6)C5)CC4)CC3)cc2cc1NC(=O)c1cccc(C(F)(F)F)n1 [Example 164, N-(2-((1R,4r)-4-(4-((R)-1-(4-(2,4-dioxotetrahydropyrimidin-1(2H)-yl)phenyl)pyrrolidine-3-carbonyl)piperazin-1-yl)cyclohexyl)-6-methoxy-2H-indazol-5-yl)-6-(trifluoromethyl)picolinamide] | 97% | 2 nM | 2 nM | 97% | – | – | – | –
3 | O=C1CC[C@H](c2c(F)cc(N3CC(C(=O)N4CCN(c5ccc(-n6cc(NC(=O)c7coc(-c8ccnc(NCC(F)(F)F)c8)n7)c(C(F)F)n6)cn5)CC4)C3)cc2F)C(=O)N1 [Example 29] | 96% | 6.9 nM | – | – | 76% | 162 nM | – | –
4 | COc1cc2nn([C@H]3CC[C@H](NC(=O)C4CCN(c5ccc6c(c5)C(=O)N(C5CCC(=O)NC5=O)C6=O)CC4)CC3)cc2cc1NC(=O)c1cccc(C(F)(F)F)n1 (stereo partly shown) [Example 32, N-(2-((1r,4r)-4-(1-(2-(2,6-dioxopiperidin-3-yl)-1,3-dioxoisoindolin-5-yl)piperidine-4-carboxamido)cyclohexyl)-6-methoxy-2H-indazol-5-yl)-6-(trifluoromethyl)picolinamide] | 95% | 2.7 nM | – | – | 91% | 15 nM | – | –
5 | Cc1cc(-c2nc(C(=O)Nc3cn(-c4ccc(N5CCN(C(=O)[C@@H]6CCN(c7cc(F)c([C@H]8CCC(=O)NC8=O)c(F)c7)C6)CC5)nc4)nc3C(N)=O)co2)ccn1 [Example 30, N-(3-carbamoyl-1-(6-(4-((R)-1-(4-((R)-2,6-dioxopiperidin-3-yl)-3,5-difluorophenyl)pyrrolidine-3-carbonyl)piperazin-1-yl)pyridin-3-yl)-1H-pyrazol-4-yl)-2-(2-methylpyridin-4-yl)oxazole-4-carboxamide] | 95% | 3.2 nM | – | – | 76% | 5.3 nM | – | –
6 | CC(C)c1cc(-c2nc(C(=O)Nc3cn([C@H]4CC[C@H](N5CCN(C(=O)[C@@H]6CCN(c7cc(F)c([C@H]8CCC(=O)NC8=O)c(F)c7)C6)CC5)CC4)nc3C(F)F)co2)ccn1 [Example 85, N-(3-(difluoromethyl)-1-((1R,4r)-4-(4-((R)-1-(4-((R)-2,6-dioxopiperidin-3-yl)-3,5-difluorophenyl)pyrrolidine-3-carbonyl)piperazin-1-yl)cyclohexyl)-1H-pyrazol-4-yl)-2-(2-isopropylpyridin-4-yl)oxazole-4-carboxamide] | 95% | 5.2 nM | – | – | – | – | – | –
7 | O=C1CC[C@H](c2c(F)cc(CCN3CCN(C[C@H]4CC[C@H](n5cc(NC(=O)c6coc(-c7ccnc(NCC(F)(F)F)c7)n6)c(C(F)F)n5)CC4)CC3)cc2F)C(=O)N1 [Example 1, N-(3-(difluoromethyl)-1-((1R,4r)-4-((4-(4-((R)-2,6-dioxopiperidin-3-yl)-3,5-difluorophenethyl)piperazin-1-yl)methyl)cyclohexyl)-1H-pyrazol-4-yl)-2-(2-((2,2,2-trifluoroethyl)amino)pyridin-4-yl)oxazole-4-carboxamide] | 46% | > 10000 nM | – | – | – | – | > 10000 nM | 46%
8 | O=C1CCN(c2c(F)cc(N3CC(C(=O)N4CCN([C@H]5CC[C@H](n6cc(NC(=O)c7coc(-c8ccnc(NCC(F)(F)F)c8)n7)c(C(F)F)n6)CC5)CC4)C3)cc2F)C(=O)N1 [Example 76, N-(3-(difluoromethyl)-1-((1r,4r)-4-(4-(1-(4-(2,4-dioxotetrahydropyrimidin-1(2H)-yl)-3,5-difluorophenyl)azetidine-3-carbonyl)piperazin-1-yl)cyclohexyl)-1H-pyrazol-4-yl)-2-(2-((2,2,2-trifluoroethyl)amino)pyridin-4-yl)oxazole-4-carboxamide] | 97% | 3.2 nM | – | – | – | – | – | –
9 | O=C1CCN(c2ccc(N3CC(C(=O)N4CCN([C@H]5CC[C@H](n6cc(NC(=O)c7coc(-c8ccnc(NCC9CC9)c8)n7)c(C(F)F)n6)CC5)CC4)C3)cc2)C(=O)N1 [Example 24, 2-(2-((cyclopropylmethyl)amino)pyridin-4-yl)-N-(3-(difluoromethyl)-1-((1r,4r)-4-(4-(1-(4-(2,4-dioxotetrahydropyrimidin-1(2H)-yl)phenyl)azetidine-3-carbonyl)piperazin-1-yl)cyclohexyl)-1H-pyrazol-4-yl)oxazole-4-carboxamide] | 98% | 2.8 nM | – | – | – | – | – | –
10 | O=C1CC[C@H](c2c(F)cc(N3CC(C(=O)N4CCN([C@H]5CC[C@H](n6cc(NC(=O)c7cnn(-c8ccnc(NCC(F)(F)F)c8)n7)c(C(F)F)n6)CC5)CC4)C3)cc2F)C(=O)N1 [Example 51, N-(3-(difluoromethyl)-1-((1r,4r)-4-(4-(1-(4-((R)-2,6-dioxopiperidin-3-yl)-3,5-difluorophenyl)azetidine-3-carbonyl)piperazin-1-yl)cyclohexyl)-1H-pyrazol-4-yl)-2-(2-((2,2,2-trifluoroethyl)amino)pyridin-4-yl)-2H-1,2,3-triazole-4-carboxamide] | 96% | 1.2 nM | – | – | 93% | 4.8 nM | – | –
11 | O=C1CCN(c2c(F)cc(N3CC[C@H](C(=O)N4CCN([C@H]5CC[C@H](n6cc(NC(=O)c7cnn(-c8ccnc(NCC9CC9)c8)n7)c(C(F)F)n6)CC5)CC4)C3)cc2F)C(=O)N1 [Example 63, 2-(2-((cyclopropylmethyl)amino)pyridin-4-yl)-N-(3-(difluoromethyl)-1-((1S,4r)-4-(4-((S)-1-(4-(2,4-dioxotetrahydropyrimidin-1(2H)-yl)-3,5-difluorophenyl)pyrrolidine-3-carbonyl)piperazin-1-yl)cyclohexyl)-1H-pyrazol-4-yl)-2H-1,2,3-triazole-4-carboxamide] | 95% | 15 nM | – | – | – | – | – | –
12 | O=C1CCN(c2ccc(N3CC[C@H](C(=O)N4CCN([C@H]5CC[C@H](n6cc(NC(=O)c7coc(-c8ccnc(NCC9CC9)c8)n7)c(C(F)F)n6)CC5)CC4)C3)cc2)C(=O)N1 [Example 22, 2-(2-((cyclopropylmethyl)amino)pyridin-4-yl)-N-(3-(difluoromethyl)-1-((1S,4r)-4-(4-((S)-1-(4-(2,4-dioxotetrahydropyrimidin-1(2H)-yl)phenyl)pyrrolidine-3-carbonyl)piperazin-1-yl)cyclohexyl)-1H-pyrazol-4-yl)oxazole-4-carboxamide] | 90% | 6.8 nM | – | – | – | – | – | –
13 | CC(C)(O)c1cc2nc(C3CCN(C4CCN(C(=O)[C@@H]5CCN(c6cc(F)c([C@H]7CCC(=O)NC7=O)c(F)c6)C5)CC4)CC3)cn2cc1NC(=O)c1cccc(C(F)(F)F)n1 [Example 127, N-(2-(1′-((R)-1-(4-((R)-2,6-dioxopiperidin-3-yl)-3,5-difluorophenyl)pyrrolidine-3-carbonyl)-[1,4′-bipiperidin]-4-yl)-7-(2-hydroxypropan-2-yl)imidazo[1,2-a]pyridin-6-yl)-6-(trifluoromethyl)picolinamide] | 102% | 1.3 nM | – | – | 94% | 12 nM | – | –
